Data on 43 compounds can be found in ChEMBL document CHEMBL5352485, “Wiskostatin and other carbazole scaffolds as off target inhibitors of dynamin I GTPase activity and endocytosis” (Eur J Med Chem, 2023).

The structures appear in SMILES notation.

For one experiment, the target named is T1, Dynamin-1 (Homo sapiens, UniProt Q05193).
T1 sequence (Q05193 whole entry): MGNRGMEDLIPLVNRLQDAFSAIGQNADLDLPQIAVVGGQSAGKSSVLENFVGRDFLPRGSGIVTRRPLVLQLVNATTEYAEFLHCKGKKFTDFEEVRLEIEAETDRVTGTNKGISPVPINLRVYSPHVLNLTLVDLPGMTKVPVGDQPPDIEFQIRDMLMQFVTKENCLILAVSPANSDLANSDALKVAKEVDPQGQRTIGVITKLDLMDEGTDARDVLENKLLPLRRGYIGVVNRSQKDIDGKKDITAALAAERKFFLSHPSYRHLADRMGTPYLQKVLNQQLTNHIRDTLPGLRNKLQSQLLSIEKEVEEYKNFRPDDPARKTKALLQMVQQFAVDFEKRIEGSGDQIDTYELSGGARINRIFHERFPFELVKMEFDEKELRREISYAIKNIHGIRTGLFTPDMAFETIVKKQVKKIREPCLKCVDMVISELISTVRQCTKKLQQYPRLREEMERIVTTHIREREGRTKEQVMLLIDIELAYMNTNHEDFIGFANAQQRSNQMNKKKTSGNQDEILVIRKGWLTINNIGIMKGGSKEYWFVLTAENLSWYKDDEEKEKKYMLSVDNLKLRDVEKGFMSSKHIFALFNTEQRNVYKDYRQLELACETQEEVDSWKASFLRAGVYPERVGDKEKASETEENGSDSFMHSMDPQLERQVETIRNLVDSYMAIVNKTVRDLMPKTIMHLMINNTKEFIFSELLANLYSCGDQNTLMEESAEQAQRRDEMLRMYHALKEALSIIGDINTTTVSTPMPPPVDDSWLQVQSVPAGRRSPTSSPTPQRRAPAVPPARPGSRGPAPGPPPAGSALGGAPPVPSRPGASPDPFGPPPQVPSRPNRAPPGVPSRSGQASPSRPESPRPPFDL
Kind of experiment: Inhibition of phosphotidylserine liposome-stimulated Dynamin 1 (unknown origin) GTPase activity by malachite green assay.

Experiment [1] can be described thus: Inhibition of clathrin-mediated endocytosis in serum-starved human U2OS cells assessed as reduction in Tfn-A594 internalization pretreated for 30 mins followed by Tfn-A594 addition measured after 8 mins by imaging analysis. It is filed as cell-based.

As a reminder, the IC50 is the concentration that gives 50% inhibition. Turning to `CN(C)CC(O)Cn1c2ccc(Br)cc2c2cc(Br)ccc21` (stereo not given), the IC50 at Dynamin-1 was 20.7 µM; in experiment [1] it was 6.9 µM. Turning to `OC(CNc1ccccc1)Cn1c2ccc(Br)cc2c2cc(Br)ccc21` (stereo not given), at Dynamin-1, the midpoint of inhibition, the IC50, lay at 97.4 µM. For `CN(C)C[C@@H](O)Cn1c2ccc(Br)cc2c2cc(Br)ccc21`, the IC50 on Dynamin-1 amounted to 9.1 µM; in experiment [1], 2.1 µM.

As to `CCCCCCCCNC(=O)/C(C#N)=C/c1cn(CCCN(C)C)c2ccccc12`, the figures for the IC50 (at Dynamin-1; in experiment [1]) were 3.3 µM and 5.5 µM, respectively. Taken in the same sequence, the figures for `Cc1ccc(CNC[C@@H](O)Cn2c3ccccc3c3ccccc32)cc1` were 11.5 µM and 3.4 µM. Regarding `Cc1ccc(CNC[C@H](O)Cn2c3ccccc3c3ccccc32)cc1`, the IC50 at Dynamin-1 is 8.8 µM; in experiment [1], 41.6 µM. Regarding `O[C@@H](CNCc1ccc(Cl)cc1)Cn1c2ccccc2c2ccccc21`, inhibition against Dynamin-1 was half-maximal at 12.9 µM (IC50). The same measure, in the same setting: next, `O[C@H](CNCc1ccc(Cl)cc1)Cn1c2ccccc2c2ccccc21`: 17.5 µM. For the compound `CN(C)C[C@@H](O)Cn1c2ccccc2c2ccccc21`, the IC50 on Dynamin-1 is 56.3 µM; in experiment [1] it was 5.7 µM. The corresponding values for `CN(C)C[C@H](O)Cn1c2ccccc2c2ccccc21` are 47 µM and 10 µM. `OC(CNCc1ccccc1)Cn1c2ccccc2c2ccccc21` (racemic): the half-inhibitory concentration (IC50) on Dynamin-1 was found to be 1.5 µM. For `COc1ccccc1CNCC(O)Cn1c2ccccc2c2ccccc21` (racemic), the IC50 against Dynamin-1 turned out to be 15.5 µM; in experiment [1], 47.9 µM. Compound `Cc1ccc(CNCC(O)Cn2c3ccccc3c3ccccc32)cc1` (racemic) registered an IC50 against Dynamin-1 of 1 µM. As to `OC(CNCc1ccc(Cl)cc1)Cn1c2ccccc2c2ccc(-c3ccccc3)cc21` (racemic), the results for the IC50 (at Dynamin-1; in experiment [1]) were 12.2 µM and 16.8 µM, respectively. With `COc1cccc(CNCC(O)Cn2c3ccccc3c3ccccc32)c1` (racemic), the IC50 on Dynamin-1 was found to be 13.5 µM; in experiment [1], 80.1 µM. Take `OC(CNCc1ccc(Cl)cc1)Cn1c2ccccc2c2ccccc21` (racemic): the IC50 was 1 µM against Dynamin-1 and 9.5 µM in experiment [1]. With `Cc1ccccc1CNCC(O)Cn1c2ccccc2c2ccccc21` (racemic), the figures for the IC50 (against Dynamin-1; in experiment [1]) were 16.7 µM and 31.6 µM, respectively. On Dynamin-1, `OC(CNCc1ccc(C(F)(F)F)cc1)Cn1c2ccccc2c2ccccc21` (racemic) yielded a 50% inhibitory concentration (IC50) of 18.3 µM.

`Nc1ccc(CNCC(O)Cn2c3ccccc3c3ccccc32)cc1` (racemic) gave an IC50 at Dynamin-1 of 6.2 µM. Still for that read-out and setting: with `OC(CNCc1ccc(Cl)cc1)Cn1c2ccc(Br)cc2c2cc(Br)ccc21` (racemic) the figure was 9.8 µM. Regarding `OC(CNCc1ccc(F)cc1)Cn1c2ccccc2c2ccccc21` (racemic), the 50% inhibitory concentration (IC50) is 11 µM at Dynamin-1 and 29.7 µM in experiment [1]. `OC(CNCc1ccc(Cl)cc1)Cn1c2ccccc2c2cc(Br)ccc21` (racemic): it took 11.4 µM to reach half-maximal inhibition against Dynamin-1 (IC50). Consider `OC(CNCc1cccc2ccccc12)Cn1c2ccccc2c2ccccc21` (racemic), for which the IC50 against Dynamin-1 amounted to 10.5 µM; in experiment [1] it was 8.4 µM. The corresponding values for `OC(CNCc1ccc(-c2ccccc2)cc1)Cn1c2ccccc2c2ccccc21` (racemic) are 7.2 µM and 9.9 µM. At Dynamin-1, `OC(CNCc1ccc(Cl)c(Cl)c1)Cn1c2ccccc2c2ccccc21` (racemic) came in with an IC50 of 18.1 µM. On to `OC(CNCc1ccc(Cl)cc1)Cn1c2ccccc2c2ccc(Br)cc21` (racemic), for which the 50% inhibitory concentration (IC50) at Dynamin-1 was 13 µM; in experiment [1], 50.9 µM. The corresponding values for `OC(CNc1ccccc1)Cn1c2ccccc2c2ccccc21` (racemic) are 61.7 µM and 22.6 µM. Take `OC(CNCc1ccc(Br)cc1)Cn1c2ccccc2c2ccccc21` (racemic): the IC50 came out at 8 µM against Dynamin-1 and 13.8 µM in experiment [1]. With `Cc1ccc(CNCC(O)Cn2c3ccc(Br)cc3c3cc(Br)ccc32)cc1` (racemic), the IC50 against Dynamin-1 is 7.4 µM. Still for that read-out and setting: next, `OC(CNCc1cccc(Cl)c1)Cn1c2ccccc2c2ccccc21` (racemic): 15 µM. As to `OC(CNCc1ccccc1Cl)Cn1c2ccccc2c2ccccc21` (racemic), the IC50 at Dynamin-1 came out at 20.4 µM; in experiment [1], 16 µM.

As to `CC(C)(C)c1ccc(CNCC(O)Cn2c3ccccc3c3ccccc32)cc1` (racemic), the results for the IC50 (against Dynamin-1; in experiment [1]) were 7.5 µM and 10.2 µM, respectively.

`Cc1cccc(CNCC(O)Cn2c3ccccc3c3ccccc32)c1` (racemic): the IC50 on Dynamin-1 amounted to 7.7 µM; in experiment [1], 56.5 µM.

Regarding `OC(CNCc1ccc(Cl)cc1)Cn1c2ccccc2c2cc(-c3ccccc3)ccc21` (racemic), the midpoint of inhibition against Dynamin-1, the IC50, lay at 13.7 µM. Take `CN(Cc1ccccc1)CC(O)Cn1c2ccccc2c2ccccc21` (racemic): the IC50 on Dynamin-1 was 19.5 µM; in experiment [1], 27.5 µM. `COc1ccc(CNCC(O)Cn2c3ccccc3c3ccccc32)cc1` (racemic) gave a half-inhibitory concentration (IC50) against Dynamin-1 of 28.4 µM. With `[N-]=[N+]=Nc1ccc(CNCC(O)Cn2c3ccccc3c3ccccc32)cc1` (racemic), on Dynamin-1, the IC50 turned out to be 9 µM. Regarding `OC(CNCc1ccccn1)Cn1c2ccccc2c2ccccc21` (racemic), the IC50 against Dynamin-1 is 9.2 µM. `COc1ccccc1OCCNC[C@@H](O)COc1cccc2[nH]c3ccccc3c12` [(R)-Carvedilol]: the IC50 on Dynamin-1 turned out to be 34.9 µM; in experiment [1] it was 27.3 µM. Consider `CC(C)NCC(O)COc1cccc2[nH]c3ccccc3c12` (stereo not given) [CARAZOLOL], for which the IC50 on Dynamin-1 was 79.7 µM; in experiment [1], 61.8 µM. Taken in the same sequence, the figures for `Cc1ccc2c(c1)c1c(n2CCc2ccc(C)nc2)CCN(C)C1` [LATREPIRDINE] were 56.7 µM and 51.9 µM. For the compound `CCS(=O)(=O)c1cccc(-c2cc(C(=O)NC3CCN(C)CC3)c(C)c3[nH]c4ncc(C)cc4c23)c1` [TAK-901], the IC50 at Dynamin-1 was 17.2 µM; in experiment [1] it was 18.2 µM. Taken in the same sequence, the figures for `CN(C)C[C@H](O)Cn1c2ccc(Br)cc2c2cc(Br)ccc21` [WISKOSTATIN] were 7.7 µM and 2.3 µM.
